The results in this text go back to US6713251B2, “Method for detection of drug-induced mutations in the reverse transcriptase gene” (Innogenetics N.V., priority 1996, dated 2004).

One assay deals with HIV-1. Put plainly: Follow-up of plasma HIV RNA copy number (viral load, HIV Monitor test) in treated patients. The format is in vivo, human. The method, then:
(§1) Plasma samples were taken from HIV type-1 infected patients and stored at −20° C. until use. Patients were treated with AZT, ddI, ddC, D4T, 3TC, or several combinations of these prodrugs. The European serum samples tested were randomly selected. For the US serum collection, only the first sample from a follow-up series was taken. Some of these US patients were treated, others were not treated.
For cDNA synthesis and PCR amplification, the RNA pellet was dissolved in 15 μl random primers (20 ng/μl, pdN6, Pharmacia), prepared in DEPC-treated or HPLC grade water. After denaturation at 70° C. for 10 minutes, 5 μl cDNA mix was added, composed of 4 μl 5×AMV-RT buffer (250 mM Tris.HCl pH 8.5, 100 mM KCl, 30 mM MgCl2, 25 mM DTT), 0.4 μL 25 mM dXTPs, 0.2 μl or 25U Ribonuclease Inhibitor (HPRI, Amersham), and 0.3 μl or 8U AMV-RT (Stratagene). CDNA synthesis occurred during the 90 minutes incubation at 42° C. The HIV RT gene was then amplified using the following reaction mixture. […] Nested round PCR products were analysed on agarose gel and only clearly visible amplification products were used in the LiPA procedure. Quantification of viral RNA was obtained with the HIV Monitor™test (Roche, Brussels, Belgium).
We selected follow-up samples from three patients and analyzed the viral genotype on the 48 LiPA probes. […]

For the next assay, the system named is CD4 cells. Put plainly: Follow-up of CD4 cell count in treated HIV-1 infected patients. The format is in vivo, human. The method, then: as §1
We selected follow-up samples from three patients and analyzed the viral genotype on the 48 LiPA probes. FIG. 3 illustrates the applicability of genotypic resistance measurement in conjunction with the analysis of viral load and CD4 cell count.

Consider `Nc1ccn([C@@H]2CS[C@H](CO)O2)c(=O)n1` [3TC, (−)-β-L-2′,3′-dideoxy-3′-thioCytidine], for which the Viral load decrease with HIV-1 (Patient 94013, 3TC monotherapy from week 2 onwards) worked out at 3 log units. Also, in the assay with CD4 cells (Patient 94013, 3TC monotherapy from week 2 onwards, highest level at week 10), the CD4 count increase is approximately 2.5 fold.
Take `Cc1cn([C@H]2C[C@H](N=[N+]=[N-])[C@@H](CO)O2)c(=O)[nH]c1=O` [AZT, 3′-azido-2′,3′-dideoxyThymidine]: in the assay with HIV-1 (Patient 92021, ten weeks of AZT treatment (from week 10), values of week 16 and 19), the “Effect on viral load” value is reported as “did not result in a drop in viral load”. Further, the “Change in CD4 count” value with CD4 cells (Patient 92021, AZT monotherapy from week 10, peak at week 21) is “initially increased”.
